Assay results from US12415771B2, “Compounds for the treatment of neuromuscular disorders” (NMD PHARMA A/S, priority 2019, dated 2025).
Read-outs that look alike come from different tables or passages of the source.

Legend:
[1] = system: isolated rat soleus muscles; assay: Recovery of nerve-stimulated contractile force in isolated rat soleus nerve-muscle preparation exposed to tubocurarine; details: for activation at 50 µM: 40 min, read-out: Point increase (%) of initial force that was restored
Protocol: Recovery of force is quantified as the percentage of the force prior to tubocurarine that is recovered by the compound.
The current disclosure relates to compounds that inhibit CIC-1 ion channels and increase muscle excitability and thereby improve muscle function in clinical conditions where muscle activation is failing. Such conditions result in loss of contractile function of skeletal muscle, weakness and excessive fatigue. In this series of experiments the compounds were tested for their ability to restore contractile function of isolated rat muscle when the neuromuscular transmission had been compromised akin to neuromuscular disorders.
Experimentally, soleus muscles from 4-5 wk old rats were isolated with the motor nerve remaining attached. The nerve-muscle preparations were mounted in experimental setups that enabled electrical stimulation of the motor nerve. Stimulation of the motor nerve led to activation of the muscle fibres and ensuing force production that was recorded.
After mounting the nerve-muscle preparation in the experimental setup, the contractile function of the muscle was initially assessed under the control conditions (FIG. 2A). […] The experimental condition mimics the failing neuromuscular transmission in a range of neuromuscular disorders. After addition of tubocurarine the contractile force declined over the next 90 mins to 10-50% of the control force. 50 μM of the test compound was then added and the contractile force recovered despite the continued presence of tubocurarine. To quantify the ability of the compound to restore force the percentage of the initial force that was restored was determined after 40 mins of compound exposure (FIG. 2B) and the point increase is reported in Table 3.

female Lewis rats = assay: In situ isometric hindlimb force in anaesthetised rats under partial neuromuscular block by Cisatracurium; assay type: in vivo; details: Rattus norvegicus, iv, read-out: increase in tetanic force
Protocol: Isometric hindlimb force was measured in 12-week old female Lewis rats in the presence and absence of compound.
Rats were placed under anesthesia with isoflurane (2-4%), intubated and subsequently connected to a micro ventilator (Microvent 1, Hallowell EMC, US). Two stimulation electrodes were inserted through the skin to stimulate the sciatic nerve. A small incision was made proximal to the ankle, to expose the Achilles tendon, which was tied by cotton string, and connected to a force transducer (Fort250, World Precision Instruments) with adjustable position (Vernier control). The Achilles tendon was then cut distal to the attached cotton string. The rat was placed on a heated pad, and to prevent movement artefacts from contraction of the ankle dorsiflexors, the foot was fixated by tape on a footplate.
Muscle contractile properties were assessed by applying an electrical current (under supramaximal voltage conditions) to the nerve and recording the force generated by the muscle. The muscle was stretched until maximal force was obtained, when assessed by 2 Hz stimulation. Isometric force was measured every 30 seconds at 12 Hz (Twitch), 10 pulses, and at every 5 minutes at 80 Hz (Tetanic) for 1 second (80 pulses). This stimulation pattern was employed throughout the experiment, expect in few cases where 80 Hz stimulation was replaced by 12 Hz (10 pulses). […] When the level of neuromuscular inhibition was stable, the test article was injected i.v. at the chosen concentration. The effect of test article was assessed on its ability to increase force generated from the stimulation pattern applied. The effect was assessed in the ability to increase force per se (tetanic, 80 Hz, stimulation), and the ratio between individual twitch peaks (12 Hz stimulation). The effect was monitored for at least 1 hour after injection of test article. In addition, the time from injection of test article to maximal effect on force (both twitch and tetanic) was noted and the time for the effect to disappear (return to baseline), if possible. When appropriate the infusion of neuromuscular blocking agent was ceased, with the stimulation pattern continued, and the return of force to control levels was monitored. Animals were sacrificed by cervical dislocation while still fully sedated.

CIC-1 ion channel = molecular target: T1, CIC-1 ion channel (Rattus norvegicus, UniProt P35524); assay: Electrophysiological measurement (Gm, three micro-electrode technique) of compound inhibition of CIC-1 in rat soleus muscle fibres; assay type: cell-based; details: whole rat soleus muscle, Gm at four increasing concentrations, approx. 30° C., mean ± spread
T1 construct: from tissue; host or cells: intact soleus muscle of 12-14 week old Wistar rats
T1 sequence (P35524 1-994): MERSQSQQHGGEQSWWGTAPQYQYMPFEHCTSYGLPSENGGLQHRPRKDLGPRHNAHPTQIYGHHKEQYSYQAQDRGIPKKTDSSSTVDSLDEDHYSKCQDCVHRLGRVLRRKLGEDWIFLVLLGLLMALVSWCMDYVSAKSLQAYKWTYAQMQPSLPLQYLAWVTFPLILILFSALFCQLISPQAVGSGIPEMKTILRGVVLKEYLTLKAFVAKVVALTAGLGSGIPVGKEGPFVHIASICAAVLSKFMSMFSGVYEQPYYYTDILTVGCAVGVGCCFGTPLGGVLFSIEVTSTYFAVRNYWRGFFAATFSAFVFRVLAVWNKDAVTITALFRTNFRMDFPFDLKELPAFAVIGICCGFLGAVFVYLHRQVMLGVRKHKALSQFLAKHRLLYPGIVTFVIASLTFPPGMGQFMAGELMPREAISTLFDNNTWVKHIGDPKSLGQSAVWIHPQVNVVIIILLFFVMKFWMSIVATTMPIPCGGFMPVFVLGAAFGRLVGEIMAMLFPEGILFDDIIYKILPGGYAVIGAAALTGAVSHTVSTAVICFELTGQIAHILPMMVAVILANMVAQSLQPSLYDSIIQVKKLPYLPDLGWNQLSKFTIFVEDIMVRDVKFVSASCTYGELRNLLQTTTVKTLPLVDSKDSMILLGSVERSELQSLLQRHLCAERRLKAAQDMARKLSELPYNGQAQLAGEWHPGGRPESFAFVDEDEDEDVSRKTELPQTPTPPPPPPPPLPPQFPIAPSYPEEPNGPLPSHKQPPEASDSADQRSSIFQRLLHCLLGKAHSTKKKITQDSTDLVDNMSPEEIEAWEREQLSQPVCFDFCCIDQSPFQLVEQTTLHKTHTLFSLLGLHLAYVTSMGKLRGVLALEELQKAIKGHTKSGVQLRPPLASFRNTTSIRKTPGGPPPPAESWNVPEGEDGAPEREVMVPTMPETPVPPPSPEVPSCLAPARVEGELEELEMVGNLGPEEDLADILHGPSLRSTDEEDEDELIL

[2] = 50 μM test compound, after 40 mins exposure, 115 nM tubocurarine for 90 mins, rat soleus

Row | Compound | activation at 50 µM [1, 2] [%] | EC50 (CIC-1 ion channel) [nM] | also measured
1 | C[C@H](Oc1ccc(Br)cc1C(C)(F)F)C(=O)O [Compound A-4, (2S)-2-[4-bromo-2-(1,1-difluoroethyl)phenoxy]propanoic acid] | 34 | – | change in vivo at 21.6 mg/kg (female Lewis rats; 21.6 mg/kg i.v., 80 Hz stimulation, Cisatracurium block): 34%
2 | CCC(F)(F)c1cc(Cl)ccc1O[C@@H](C)C(=O)O [Compound A-5, (2S)-2-[4-chloro-2-(1,1-difluoropropyl)phenoxy]propanoic acid] | – | 4000 ± 2100 | activation at 50 µM ([1]; Rattus norvegicus): 53%; change in vivo at 10.5 mg/kg (female Lewis rats): 47%
3 | CCC(F)(F)c1cc(Br)ccc1OCC(=O)O [Compound A-6, 2-[4-bromo-2-(1,1-difluoropropyl)phenoxy]acetic acid] | 35 | 7500 ± 2900 | –
4 | CC(C)C(F)(F)c1cc(Br)ccc1O[C@@H](C)C(=O)O [Compound A-7, (2S)-2-[4-bromo-2-(1,1-difluoro-2-methylpropyl)phenoxy]propanoic acid] | 42 | 3500 ± 700 | change in vivo at 25.1 mg/kg (female Lewis rats; 25.1 mg/kg i.v., 80 Hz stimulation, Cisatracurium block): 64%
5 | CCC(F)(F)c1cc(Br)ccc1O[C@@H](CF)C(=O)O [Compound A-11, (2R)-2-[4-bromo-2-(1,1-difluoropropyl)phenoxy]-3-fluoropropanoic acid] | – | 1600 ± 200 | change in vivo at 17.6 mg/kg (female Lewis rats; 17.6 mg/kg i.v., 80 Hz stimulation, Cisatracurium block): 44%
6 | CC(F)(F)c1cc(Br)ccc1O[C@@H](CF)C(=O)O [Compound A-16, (2R)-2-[4-bromo-2-(1,1-difluoroethyl)phenoxy]-3-fluoropropanoic acid] | – | 3200 ± 800 | change in vivo at 22.9 mg/kg (female Lewis rats; 22.9 mg/kg i.v., 80 Hz stimulation, Cisatracurium block): 46%
7 | CCC(F)(F)c1cc(Br)ccc1O[C@@H](CCl)C(=O)O [Compound A-17, (2R)-2-[4-bromo-2-(1,1-difluoropropyl)phenoxy]-3-chloropropanoic acid] | 48 | – | –
8 | C#CC[C@H](Oc1ccc(Br)cc1C(F)(F)CC)C(=O)O [Compound A-18, (2S)-2-[4-bromo-2-(1,1-difluoropropyl)phenoxy]pent-4-ynoic acid] | 31 | 4800 ± 1100 | –
9 | C#CC[C@H](Oc1ccc(Cl)cc1C(C)(F)F)C(=O)O [Compound A-19, (2S)-2-[4-chloro-2-(1,1-difluoroethyl)phenoxy]pent-4-ynoic acid] | 27 | – | –
10 | CCC(F)(F)c1cc(I)ccc1O[C@@H](C)C(=O)O [Compound A-20, (2S)-2-[2-(1,1-difluoropropyl)-4-iodophenoxy]propanoic acid] | 44 | 1900 | –
11 | CCC(F)(F)c1cc(Br)c(F)cc1O[C@@H](C)C(=O)O [Compound A-24, (2S)-2-[4-bromo-2-(1,1-difluoropropyl)-5-fluorophenoxy]propanoic acid] | – | 900 ± 200 | –
12 | CCC(F)(F)c1cc(Br)c(F)cc1O[C@@H](CF)C(=O)O [Compound A-34, (2R)-2-[4-bromo-2-(1,1-difluoropropyl)-5-fluorophenoxy]-3-fluoropropanoic acid] | – | 1100 ± 200 | –
13 | C=Cc1ccc(O[C@@H](C)C(=O)O)c(C(F)(F)CC)c1 [Compound A-35, (2S)-2-[2-(1,1-difluoropropyl)-4-ethenylphenoxy]propanoic acid] | 20 | – | –
14 | CC(C)C(F)(F)c1cc(Br)ccc1OCC(=O)O [Compound A-38, 2-[4-bromo-2-(1,1-difluoro-2-methylpropyl)phenoxy]acetic acid] | – | 7400 | –
15 | CCC(F)(F)c1cc(Cl)c(F)cc1OCC(=O)O [Compound A-39, 2-[4-chloro-2-(1,1-difluoropropyl)-5-fluorophenoxy]acetic acid] | – | 7900 ± 3100 | activation at 50 µM ([1]; Rattus norvegicus): 37%
16 | CCC(F)(F)c1cc(Cl)c(F)cc1O[C@@H](CF)C(=O)O [Compound A-41, (2R)-2-[4-chloro-2-(1,1-difluoropropyl)-5-fluorophenoxy]-3-fluoropropanoic acid] | – | 1100 ± 400 | –
17 | CCC(F)(F)c1cc(Cl)c(Cl)cc1O[C@@H](C)C(=O)O [Compound A-42, (2S)-2-[4,5-dichloro-2-(1,1-difluoropropyl)phenoxy]propanoic acid] | – | 2500 ± 300 | activation at 50 µM ([1]; Rattus norvegicus): 30%
18 | CC(F)(F)c1cc(Br)c(F)cc1O[C@@H](CF)C(=O)O [Compound A-43, (2R)-2-[4-bromo-2-(1,1-difluoroethyl)-5-fluorophenoxy]-3-fluoropropanoic acid] | – | 2900 ± 900 | –
19 | CC(F)(F)c1cc(Cl)c(Cl)cc1O[C@@H](CF)C(=O)O [Compound A-44, (2R)-2-[4,5-dichloro-2-(1,1-difluoroethyl)phenoxy]-3-fluoropropanoic acid] | 24 | – | –
20 | C=Cc1cc(C(F)(F)CC)c(O[C@@H](C)C(=O)O)cc1F [Compound A-47, (2S)-2-[2-(1,1-difluoropropyl)-4-ethenyl-5-fluorophenoxy]propanoic acid] | 31 | – | –
21 | CC[C@H](Oc1cc(F)c(Br)cc1C(F)(F)CC)C(=O)O [Compound A-48, (2S)-2-[4-bromo-2-(1,1-difluoropropyl)-5-fluorophenoxy]butanoic acid] | – | 2000 | –
22 | CC[C@H](Oc1cc(F)c(Cl)cc1C(F)(F)CC)C(=O)O [Compound A-49, (2S)-2-[4-chloro-2-(1,1-difluoropropyl)-5-fluorophenoxy]butanoic acid] | 24 | – | –
23 | CCC(F)(F)c1cc([N+](=O)[O-])ccc1O[C@@H](C)C(=O)O [Compound A-51, (2S)-2-[2-(1,1-difluoropropyl)-4-nitrophenoxy]propanoic acid] | 37 | – | –
24 | CCC(F)(F)c1cc(F)c(F)cc1O[C@@H](CF)C(=O)O [Compound A-54, (2R)-2-[2-(1,1-difluoropropyl)-4,5-difluorophenoxy]-3-fluoropropanoic acid] | 36 | – | –
25 | (2S)-2-[4-bromo-2-(1,1-difluoropropyl)(3,5,6-^2H3)phenoxy]propanoic acid [Compound A-30] | – | – | Point increase (%) of initial force that was restored [1, 2]: 44%
26 | (2S)-2-[4-bromo-2-(1,1-difluoropropyl)phenoxy](2-^2H)propanoic acid [Compound A-21] | – | 2600 | Point increase (%) of initial force that was restored [1, 2]: 44%
